Data reported in PubChem BioAssay AID1963960 (Molecular Pharmacology Branch, DTP, NCI, 2024).

System: MDA-MB-468 spheroids with HUVEC/MSC, viability
Assay: Anticancer human tumor MDA-MB-468 cell line growth inhibition [PI3K];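 further: spheroids exposed to agents for seven days before readout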;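 on viability, T/C: 100% = DMSO vehicle control viability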
Settings: for IC50: curve of first compound; for viability, T/C: stronger effect = lower value
Outline: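 Complex 3D spheroids (cancer cells + endothelial HUVEC + mesenchymal stem cells); drug pairs of targeted agent x inavolisib/alpelisib/duvelisib/copanlisib; half-log series from ~Cmax, max 10 microM if Cmax unknown; endpoint viability.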

[1] = second compound 0.0316 µM, first compound 0.0316 µM
[2] = second compound 0.0316 µM, first compound 0.1 µM
[3] = second compound 0.0316 µM, first compound 0.316 µM
[4] = second compound 0.0316 µM, first compound 1 µM
[5] = second compound 0.0316 µM, first compound 3.16 µM
[6] = second compound 0.0316 µM, first compound 10 µM
[7] = second compound 0.1 µM, first compound 0.0316 µM
[8] = second compound 0.1 µM, first compound 0.1 µM
[9] = second compound 0.1 µM, first compound 0.316 µM
[10] = second compound 0.1 µM, first compound 1 µM
[11] = second compound 0.1 µM, first compound 3.16 µM
[12] = second compound 0.1 µM, first compound 10 µM
[13] = second compound 0.316 µM, first compound 0.0316 µM
[14] = second compound 0.316 µM, first compound 0.1 µM
[15] = second compound 0.316 µM, first compound 0.316 µM
[16] = second compound 0.316 µM, first compound 1 µM
[17] = second compound 0.316 µM, first compound 3.16 µM
[18] = second compound 0.316 µM, first compound 10 µM
[19] = second compound 1 µM, first compound 0.0316 µM
[20] = second compound 1 µM, first compound 0.1 µM
[21] = second compound 1 µM, first compound 0.316 µM
[22] = second compound 1 µM, first compound 1 µM
[23] = second compound 1 µM, first compound 3.16 µM
[24] = second compound 1 µM, first compound 10 µM
[25] = second compound 3.16 µM, first compound 0.0316 µM
[26] = second compound 3.16 µM, first compound 0.1 µM
[27] = second compound 3.16 µM, first compound 0.316 µM
[28] = second compound 3.16 µM, first compound 1 µM
[29] = second compound 3.16 µM, first compound 3.16 µM
[30] = second compound 3.16 µM, first compound 10 µM
[31] = second compound 10 µM, first compound 0.0316 µM
[32] = second compound 10 µM, first compound 0.1 µM
[33] = second compound 10 µM, first compound 0.316 µM
[34] = second compound 10 µM, first compound 1 µM
[35] = second compound 10 µM, first compound 3.16 µM
[36] = second compound 10 µM, first compound 10 µM

`CC1(C)CCC(CN2CCN(c3ccc(C(=O)NS(=O)(=O)c4ccc(NCC5CCOCC5)c([N+](=O)[O-])c4)c(Oc4cnc5[nH]ccc5c4)c3)CC2)=C(c2ccc(Cl)cc2)C1` + Cc1nc(NC(=O)N2CCCC2C(N)=O)sc1-c1ccnc(C(C)(C)C(F)(F)F)c1 gave an IC50 (second compound 0.0316 µM) of 4.01 µM, an IC50 (second compound 0.1 µM) of 4.59 µM and an IC50 (second compound 0.316 µM) of 3.26 µM. For the same compound, the IC50 (second compound 1 µM) was 3.8 µM, the IC50 (second compound 3.16 µM) was 2.12 µM and the IC50 (second compound 10 µM) was less than 0.0316 µM. The viability, T/C [1] was 93.8%, the viability, T/C [2] was 110% and the viability, T/C [3] was 85.9%. The viability, T/C [4] was 103%, the viability, T/C [5] was 61% and the viability, T/C [6] was 8.14%. It also gave a viability, T/C [7] of 85.3%, a viability, T/C [8] of 92.4% and a viability, T/C [9] of 80.2%. The viability, T/C [10] was 104%, the viability, T/C [11] was 69.9% and the viability, T/C [12] was 8.59%. The viability, T/C [13] was 110%, the viability, T/C [14] was 105% and the viability, T/C [15] was 97.5%. For the same compound, the viability, T/C [16] was 88.7%, the viability, T/C [17] was 50.2% and the viability, T/C [18] was 7.04%. For the same compound, the viability, T/C [19] was 99.7%, the viability, T/C [20] was 72.3% and the viability, T/C [21] was 99.9%. For the same compound, the viability, T/C [22] was 85.4%, the viability, T/C [23] was 58.1% and the viability, T/C [24] was 7.9%. It also gave a viability, T/C [25] of 77.8%, a viability, T/C [26] of 61.8% and a viability, T/C [27] of 54%. The viability, T/C [28] was 66.3%, the viability, T/C [29] was 43.3% and the viability, T/C [30] was 9.97%. The viability, T/C [31] was 35.2%, the viability, T/C [32] was 27.1% and the viability, T/C [33] was 35.2%. For the same compound, the viability, T/C [34] was 32.4%, the viability, T/C [35] was 24.9% and the viability, T/C [36] was 8.18%.
In the case of `C[C@@H](NC(=O)c1ncnc(N)c1Cl)c1ncc(C(=O)Nc2cc(C(F)(F)F)c(Cl)cn2)s1` + Cc1nc(NC(=O)N2CCCC2C(N)=O)sc1-c1ccnc(C(C)(C)C(F)(F)F)c1, the IC50 (second compound 0.0316 µM) is reported as greater than 10 µM, the IC50 (second compound 0.1 µM) is reported as greater than 10 µM and the IC50 (second compound 0.316 µM) is reported as greater than 10 µM. The IC50 (second compound 1 µM) was greater than 10 µM, the IC50 (second compound 3.16 µM) was 9.15 µM and the IC50 (second compound 10 µM) was less than 0.0316 µM. The viability, T/C [1] was 75.5%, the viability, T/C [2] was 109% and the viability, T/C [3] was 85.4%. The viability, T/C [4] was 117%, the viability, T/C [5] was 89.7% and the viability, T/C [6] was 82.8%. The viability, T/C [7] was 88.4%, the viability, T/C [8] was 89.2% and the viability, T/C [9] was 86.4%. The viability, T/C [10] was 119%, the viability, T/C [11] was 95% and the viability, T/C [12] was 85.2%. The viability, T/C [13] was 107%, the viability, T/C [14] was 92.2% and the viability, T/C [15] was 78.8%. The viability, T/C [16] was 98.3%, the viability, T/C [17] was 85.3% and the viability, T/C [18] was 68.6%. The viability, T/C [19] was 91.9%, the viability, T/C [20] was 71.8% and the viability, T/C [21] was 72.7%. It also gave a viability, T/C [22] of 75.7%, a viability, T/C [23] of 69.1% and a viability, T/C [24] of 61.6%. It also gave a viability, T/C [25] of 84.7%, a viability, T/C [26] of 59.2% and a viability, T/C [27] of 74.8%. For the same compound, the viability, T/C [28] was 61.4%, the viability, T/C [29] was 59.3% and the viability, T/C [30] was 46.8%. For the same compound, the viability, T/C [31] was 40.2%, the viability, T/C [32] was 31.9% and the viability, T/C [33] was 39.3%. The viability, T/C [34] was 35.4%, the viability, T/C [35] was 34% and the viability, T/C [36] was 17.1%.
For `Cn1ncnc1[C@H]1c2n[nH]c(=O)c3cc(F)cc(c23)N[C@@H]1c1ccc(F)cc1` + Cc1nc(NC(=O)N2CCCC2C(N)=O)sc1-c1ccnc(C(C)(C)C(F)(F)F)c1, the IC50 (second compound 0.0316 µM) was greater than 0.1 µM, the IC50 (second compound 0.1 µM) was 0.0665 µM and the IC50 (second compound 0.316 µM) was 0.0429 µM. It also gave an IC50 (second compound 1 µM) of 0.0244 µM, an IC50 (second compound 3.16 µM) of 0.0042 µM and an IC50 (second compound 10 µM) of less than 0.000316 µM. For the same compound, the viability, T/C (second compound 0.0316 µM, first compound 0.000316 µM) was 88.3%, the viability, T/C (second compound 0.0316 µM, first compound 0.001 µM) was 79.8% and the viability, T/C (second compound 0.0316 µM, first compound 0.00316 µM) was 84.7%. It also gave a viability, T/C (second compound 0.0316 µM, first compound 0.01 µM) of 98.3%, a viability, T/C [1] of 84% and a viability, T/C [2] of 56.3%. The viability, T/C (second compound 0.1 µM, first compound 0.000316 µM) was 80.2%, the viability, T/C (second compound 0.1 µM, first compound 0.001 µM) was 93.7% and the viability, T/C (second compound 0.1 µM, first compound 0.00316 µM) was 81.9%. It also gave a viability, T/C (second compound 0.1 µM, first compound 0.01 µM) of 93%, a viability, T/C [7] of 62.7% and a viability, T/C [8] of 43%. For the same compound, the viability, T/C (second compound 0.316 µM, first compound 0.000316 µM) was 88%, the viability, T/C (second compound 0.316 µM, first compound 0.001 µM) was 76.6% and the viability, T/C (second compound 0.316 µM, first compound 0.00316 µM) was 83.7%. For the same compound, the viability, T/C (second compound 0.316 µM, first compound 0.01 µM) was 79.6%, the viability, T/C [13] was 52.5% and the viability, T/C [14] was 43%. It also gave a viability, T/C (second compound 1 µM, first compound 0.000316 µM) of 94.2%, a viability, T/C (second compound 1 µM, first compound 0.001 µM) of 78% and a viability, T/C (second compound 1 µM, first compound 0.00316 µM) of 62.9%. It also gave a viability, T/C (second compound 1 µM, first compound 0.01 µM) of 62%, a viability, T/C [19] of 46.1% and a viability, T/C [20] of 41.4%. The viability, T/C (second compound 3.16 µM, first compound 0.000316 µM) was 64.7%, the viability, T/C (second compound 3.16 µM, first compound 0.001 µM) was 60% and the viability, T/C (second compound 3.16 µM, first compound 0.00316 µM) was 50.4%. The viability, T/C (second compound 3.16 µM, first compound 0.01 µM) was 46.7%, the viability, T/C [25] was 37.6% and the viability, T/C [26] was 36.2%. The viability, T/C (second compound 10 µM, first compound 0.000316 µM) was 35.2%, the viability, T/C (second compound 10 µM, first compound 0.001 µM) was 25.9% and the viability, T/C (second compound 10 µM, first compound 0.00316 µM) was 31.2%. For the same compound, the viability, T/C (second compound 10 µM, first compound 0.01 µM) was 26.9%, the viability, T/C [31] was 20.3% and the viability, T/C [32] was 18.5%.
